PubChem BioAssay (NCI)
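Assay format: 96-well plates, 48-hour exposure. Here, GI50 denotes the concentration required for 50% inhibition of growth. TGI denotes the concentration required for complete inhibition of growth.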

Experiments:
Experiment in all cases: NCI anticancer screen, dose series, 48 h
[1] = tested on: K-562 leukemia
[2] = tested on: SK-OV-3 ovarian
[3] = tested on: NCI/ADR-RES ovarian
[4] = tested on: NCI-H23 lung
[5] = tested on: HOP-92 NSCLC
[6] = tested on: HL-60(TB) leukemia
[7] = tested on: SK-MEL-2 melanoma
[8] = tested on: NCI-H226 lung
[9] = tested on: MDA-MB-231 breast
[10] = tested on: HOP-62 NSCLC
[11] = tested on: RPMI-8226 leukemia
[12] = tested on: OVCAR-4 ovarian
[13] = tested on: CAKI-1 renal
[14] = tested on: MDA-MB-435
[15] = tested on: MOLT-4 leukemia
[16] = tested on: SF-268 CNS
[17] = tested on: BT-549 breast
[18] = tested on: NCI-H460 lung
[19] = tested on: M14 melanoma
[20] = tested on: HS 578T breast
[21] = tested on: NCI-H522 lung
[22] = tested on: SF-539 CNS
[23] = tested on: PC-3 prostate
[24] = tested on: RXF 393 renal
[25] = tested on: SNB-75 CNS
[26] = tested on: SW-620 colon
[27] = tested on: TK-10 renal
[28] = tested on: MCF7 breast
[29] = tested on: ACHN renal
[30] = tested on: 786-0 renal
[31] = tested on: SK-MEL-5 melanoma
[32] = tested on: UACC-257 melanoma
[33] = tested on: A498 renal
[34] = tested on: HCC-2998 colon
[35] = tested on: DU-145 prostate
[36] = tested on: OVCAR-8 ovarian
[37] = tested on: MALME-3M melanoma
[38] = tested on: IGROV1 ovarian
[39] = tested on: SF-295 CNS
[40] = tested on: SK-MEL-28 melanoma
[41] = tested on: KM12 colon
[42] = tested on: LOX IMVI melanoma
[43] = tested on: UO-31 renal
[44] = tested on: HT29 colon
[45] = tested on: HCT-116 colon
[46] = tested on: T-47D breast
[47] = tested on: U251 CNS
[48] = tested on: UACC-62 melanoma
[49] = tested on: OVCAR-3 ovarian
[50] = tested on: HCT-15 colon
[51] = tested on: OVCAR-5 ovarian
[52] = tested on: CCRF-CEM leukemia
[53] = tested on: A549 NSCLC
[54] = tested on: SNB-19 CNS
[55] = tested on: SR leukemia
[56] = tested on: COLO 205 colon
[57] = tested on: SN12C renal

Compound: CCN(Cc1ccccn1)c1ccc(CO)c(Cl)c1
- GI50 [1]: 17.3 µM
- TGI [1]: > 100 µM
- GI50 [2]: 36.1 µM
- TGI [2]: > 100 µM
- GI50 [3]: 52.2 µM
- TGI [3]: > 100 µM
- GI50 [4]: > 100 µM
- TGI [4]: > 100 µM
- GI50 [5]: 10 µM
- TGI [5]: > 96.6 µM
- GI50 [6]: 46 µM
- TGI [6]: > 100 µM
- GI50 [7]: > 76.8 µM
- TGI [7]: > 100 µM
- GI50 [8]: 0.151 µM
- TGI [8]: 0.332 µM
- GI50 [9]: > 100 µM
- TGI [9]: > 100 µM
- GI50 [10]: 46.1 µM
- TGI [10]: > 100 µM
- GI50 [11]: 26.3 µM
- TGI [11]: > 100 µM
- GI50 [12]: 2.32 µM
- TGI [12]: 34.7 µM
- GI50 [13]: 39 µM
- TGI [13]: > 100 µM
- GI50 [14]: > 100 µM
- TGI [14]: > 100 µM
- GI50 [15]: > 100 µM
- TGI [15]: > 100 µM
- GI50 [16]: > 100 µM
- TGI [16]: > 100 µM
- GI50 [17]: > 100 µM
- TGI [17]: > 100 µM
- GI50 [18]: 2.71 µM
- TGI [18]: 40.7 µM
- GI50 [19]: > 100 µM
- TGI [19]: > 100 µM
- GI50 [20]: > 100 µM
- TGI [20]: > 100 µM
- GI50 [21]: > 100 µM
- TGI [21]: > 100 µM
- GI50 [22]: > 100 µM
- TGI [22]: > 100 µM
- GI50 [23]: > 89.8 µM
- TGI [23]: > 100 µM
- GI50 [24]: > 28.4 µM
- TGI [24]: > 100 µM
- GI50 [25]: > 51.7 µM
- TGI [25]: > 100 µM
- GI50 [26]: 22.8 µM
- TGI [26]: > 100 µM
- GI50 [27]: 0.199 µM
- TGI [27]: 0.744 µM
- GI50 [28]: 2.78 µM
- TGI [28]: > 100 µM
- GI50 [29]: > 100 µM
- TGI [29]: > 100 µM
- GI50 [30]: > 100 µM
- TGI [30]: > 100 µM
- GI50 [31]: 72.1 µM
- TGI [31]: > 100 µM
- GI50 [32]: 0.719 µM
- TGI [32]: 2.42 µM
- GI50 [33]: 0.125 µM
- TGI [33]: 0.266 µM
- GI50 [34]: 18.1 µM
- TGI [34]: > 100 µM
- GI50 [35]: > 100 µM
- TGI [35]: > 100 µM
- GI50 [36]: 59.4 µM
- TGI [36]: > 100 µM
- GI50 [37]: > 100 µM
- TGI [37]: > 100 µM
- GI50 [38]: 0.68 µM
- TGI [38]: 3.89 µM
- GI50 [39]: 4.91 µM
- TGI [39]: > 100 µM
- GI50 [40]: > 100 µM
- TGI [40]: > 100 µM
- GI50 [41]: > 100 µM
- TGI [41]: > 100 µM
- GI50 [42]: > 100 µM
- TGI [42]: > 100 µM
- GI50 [43]: 69.3 µM
- TGI [43]: > 100 µM
- GI50 [44]: > 69.8 µM
- TGI [44]: > 100 µM
- GI50 [45]: 1.12 µM
- TGI [45]: > 100 µM
- GI50 [46]: 0.927 µM
- TGI [46]: 5.5 µM
- GI50 [47]: 23.6 µM
- TGI [47]: > 100 µM
- GI50 [48]: 0.923 µM
- TGI [48]: 7.83 µM
- GI50 [49]: 3.75 µM
- TGI [49]: 23.3 µM
- GI50 [50]: > 100 µM
- TGI [50]: > 100 µM
- GI50 [51]: 0.385 µM
- TGI [51]: 1.58 µM
- GI50 [52]: > 100 µM
- TGI [52]: > 100 µM
- GI50 [53]: 16.6 µM
- TGI [53]: > 100 µM
- GI50 [54]: > 100 µM
- TGI [54]: > 100 µM
- GI50 [55]: > 100 µM
- TGI [55]: > 100 µM
- GI50 [56]: 4.65 µM
- TGI [56]: 16 µM
- GI50 [57]: > 100 µM
- TGI [57]: > 100 µM
